{"source": "patent US10174007B2", "about": "“Substituted 3-azabicyclo[3.1.0]hexanes as ketohexokinase inhibitors” (Pfizer Inc., priority 2015, dated 2019)", "key": {"KHK-C [1]": {"molecular_target": "T1, KHK-C (Homo sapiens (Human), UniProt P50053)", "T1 sequence (P50053 whole entry)": "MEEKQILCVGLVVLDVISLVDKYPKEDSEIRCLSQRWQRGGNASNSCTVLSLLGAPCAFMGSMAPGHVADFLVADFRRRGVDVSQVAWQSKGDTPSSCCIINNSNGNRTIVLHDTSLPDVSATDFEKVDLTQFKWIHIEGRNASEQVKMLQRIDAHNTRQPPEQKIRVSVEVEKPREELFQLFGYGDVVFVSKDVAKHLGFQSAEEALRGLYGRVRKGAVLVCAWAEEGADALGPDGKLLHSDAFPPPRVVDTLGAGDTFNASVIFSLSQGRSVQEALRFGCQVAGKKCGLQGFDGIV", "test": "Assay C: KHK assay at high fructose (8 mM) and ATP (2 mM), 1 nM KHK-C", "format": "biochemical", "excerpt": "(§1) A screening assay was developed for KHK involving a coupled enzyme system which used the product of the KHK reaction to drive an absorbance signal in kinetic mode. KHK takes fructose and ATP and converts it to F1P and ADP. ADP then serves as substrate to pyruvate kinase which converts PEP to pyruvate which is then reduced to lactate by lactate dehydrogenase with the concomitant oxidation of NADH to NAD+. The resulting depletion of NADH was monitored by measuring absorbance at 340 nm.\n(§2) Recombinant human KHK-C and KHK-A were expressed in E. coli as a His-tagged fusion protein and purified using Ni-NTA chromatography.\nA third KHK assay, referred to as Assay C, was performed at high fructose and ATP concentrations, conditions that would be more consistent with physiological concentrations of the natural substrates of the KHK enzyme. Assay C was conducted as described above for Assay B except using 8 mM fructose and 2 mM ATP, and compound concentration range of 10 pM to 1 μM or 50 pM to 5 μM using half-log dilution scheme."}, "KHK-C [2]": {"molecular_target": "T1, KHK-C", "test": "Assay A: coupled-enzyme KHK absorbance assay, 10 nM KHK-C", "settings": "10 nM KHK-C, 0.8 mM fructose, 0.2 mM ATP, avg of (#) runs", "excerpt": "as §1, §2\nCompounds were prepared in DMSO as 4 mM stocks, diluted using an 11-point half-log scheme on a Biomek FX (Beckman Coulter), and incubated at rt for 30 minutes with the reaction mixture containing 50 mM HEPES, pH 7.4, 140 mM KCl, 3.5 mM MgCl2, 0.8 mM fructose, 2 mM TCEP, 0.8 mM PEP, 0.7 mM NADH, 0.01% Triton X-100, 30 U/mL pyruvate kinase-lactate dehydrogenase, and 10 nM purified KHK-C. The compound concentration in each well ranged from 1 nM to 100 μM. The reaction was initiated with the addition of 0.2 mM ATP. The absorbance was measured for 30 minutes on a SpectraMax reader (Molecular Devices) after ATP was added. The concentrations provided are based on the final mixture volume of 40 μL (referred to as the final concentration).\nControls: N8-(cyclopropylmethyl)-N4-(2-(methylthio)phenyl)-2-(piperazin-1-yl)pyrimido[5,4-d]pyrimidine-4,8-diamine at 2 μM final concentration was used as high percent effect (HPE) control, and 2.5% DMSO which was present in all reaction wells was used as zero percent effect (ZPE) control. Reaction rates were obtained for 300-1800 seconds time window in units of 1000*AU/min (absorbance unit per minute), and average values for ZPE and HPE controls from 16 wells each were calculated, AveZPE and AveHPE, respectively.\nPercent inhibition (% inhibition) was calculated for each well using this equation:\nFor each compound tested, the IC50 provided is the average based on at least two separate assays conducted on separate days."}, "KHK-C [3]": {"molecular_target": "T1, KHK-C", "test": "Assay B: KHK assay with 1 nM KHK-C, absorbance for 3 hours", "excerpt": "as §1\nThe reaction was initiated with addition of 0.2 mM ATP, and the absorbance was monitored for 3 hours at 340 nm. Reaction rates and IC50 values were calculated as described above."}, "KHK-A": {"molecular_target": "KHK-A (Homo sapiens (Human), UniProt P50053)", "sequence (P50053 other isoform, or with tags, fused parts or gaps)": "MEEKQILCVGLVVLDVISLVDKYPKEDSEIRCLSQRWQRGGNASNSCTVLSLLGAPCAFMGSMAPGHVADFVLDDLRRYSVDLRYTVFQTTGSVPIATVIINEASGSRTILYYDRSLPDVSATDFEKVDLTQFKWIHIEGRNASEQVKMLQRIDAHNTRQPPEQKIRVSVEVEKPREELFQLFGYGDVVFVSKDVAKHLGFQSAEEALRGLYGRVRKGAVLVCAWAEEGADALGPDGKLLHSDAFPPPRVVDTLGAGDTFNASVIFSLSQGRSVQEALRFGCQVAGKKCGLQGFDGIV", "test": "Assay D: KHK assay with 1 nM human KHK-A", "settings": "read-out: IC50 (nM) Assay D 1 nM KHK-A, 8 mM fructose, 0.2 mM ATP, avg of (#) runs", "excerpt": "as §1\nA fourth assay, referred to as Assay D, was performed using human KHK-A to assess the potency of compounds in inhibiting activity of this enzyme. […] Reaction rates and IC50 values were calculated as described above."}, "[4]": {"settings": "read-out: IC50 (nM) Assay A 10 nM KHK-C"}, "[5]": {"settings": "read-out: IC50 (nM) Assay C 1 nM KHK-C, 8 mM fructose, 2 mM ATP, avg of (#) runs"}, "[6]": {"settings": "read-out: IC50 (nM) Assay A (Table 4)"}, "[7]": {"settings": "read-out: IC50 (nM) Assay B 1 nM KHK-C, 1 nM KHK-C, 0.2 mM ATP, 3 hours, avg of (#) runs"}}}
{"molecule": "C[C@H]1[C@H](O)CN1c1nc(N2C[C@@H]3[C@@H](CC(=O)O)[C@@H]3C2)c(Cl)c(C(F)(F)F)c1C#N", "note": "[Example 2, [(1R,5S,6R)-3-{3-chloro-5-cyano-6-[(2S,3R)-3-hydroxy-2-methylazetidin-1-yl]-4-(trifluoromethyl)pyridin-2-yl}-3-azabicyclo[3.1.0]hex-6-yl]acetic acid]", "values": [{"measurement": "IC50", "setting": "KHK-C [1]; 8 mM fructose, 2 mM ATP, avg of (#) runs", "result": 3.6, "unit": "nM"}, {"measurement": "IC50", "setting": "KHK-C [2]; [4]", "result": 6.8, "unit": "nM"}, {"measurement": "IC50", "setting": "KHK-C [3]", "result": 1.5, "unit": "nM"}]}
{"molecule": "Cc1c(N2C[C@@H]3[C@@H](CC(=O)O)[C@@H]3C2)nc(N2C[C@@H](O)[C@@H]2C)nc1C(F)(F)F", "note": "[Example 24, [(1R,5S,6R)-3-{2-[(2S,3R)-3-hydroxy-2-methylazetidin-1-yl]-5-methyl-6-(trifluoromethyl)pyrimidin-4-yl}-3-azabicyclo[3.1.0]hex-6-yl]acetic acid]", "values": [{"measurement": "IC50", "setting": "KHK-C [1]; [5]", "result": 11, "unit": "nM"}, {"measurement": "IC50", "setting": "KHK-A", "result": 12.1, "unit": "nM"}, {"measurement": "IC50", "setting": "KHK-C [2]; [4]", "result": 9.7, "unit": "nM"}, {"measurement": "IC50", "setting": "KHK-C [2]; [6]", "result": 9.7, "unit": "nM"}, {"measurement": "IC50", "setting": "KHK-C [3]; [7]", "result": 3.3, "unit": "nM"}]}
{"molecule": "Cc1c(N2C[C@@H]3[C@@H](CC(=O)O)[C@@H]3C2)nc(N2CC[C@@H]2C)nc1C(F)(F)F", "note": "[Example 42, [(1R,5S,6R)-3-{5-methyl-2-[(2S)-2-methylazetidin-1-yl]-6-(trifluoromethyl)pyrimidin-4-yl}-3-azabicyclo[3.1.0]hex-6-yl]acetic acid]", "values": [{"measurement": "IC50", "setting": "KHK-A", "result": 10.5, "unit": "nM"}, {"measurement": "IC50", "setting": "KHK-C [2]; [4]", "result": 8.8, "unit": "nM"}, {"measurement": "IC50", "setting": "KHK-C [2]; [6]", "result": 8.8, "unit": "nM"}, {"measurement": "IC50", "setting": "KHK-C [3]; [7]", "result": 2.4, "unit": "nM"}]}
{"molecule": "Cc1c(C(F)F)nc(N2CC[C@@H]2C)nc1N1C[C@@H]2[C@@H](CC(=O)O)[C@@H]2C1", "note": "[Example 43, [(1R,5S,6R)-3-{6-(difluoromethyl)-5-methyl-2-[(2S)-2-methylazetidin-1-yl]pyrimidin-4-yl}-3-azabicyclo[3.1.0]hex-6-yl]acetic acid]", "values": [{"measurement": "IC50", "setting": "KHK-A", "result": 48.6, "unit": "nM"}, {"measurement": "IC50", "setting": "KHK-C [2]; [4]", "result": 17.8, "unit": "nM"}, {"measurement": "IC50", "setting": "KHK-C [2]; [6]", "result": 17.8, "unit": "nM"}, {"measurement": "IC50", "setting": "KHK-C [3]; [7]", "result": 8, "unit": "nM"}]}
{"molecule": "C[C@H]1[C@H](O)CN1c1nc(N2C[C@@H]3[C@@H](CC(=O)O)[C@@H]3C2)c(F)c(C(C)(F)F)c1C#N", "note": "[Example 50, [(1R,5S,6R)-3-{5-cyano-4-(1,1-difluoroethyl)-3-fluoro-6-[(2S,3R)-3-hydroxy-2-methylazetidin-1-yl]pyridin-2-yl}-3-azabicyclo[3.1.0]hex-6-yl]acetic acid]", "values": [{"measurement": "IC50", "setting": "KHK-C [1]; [5]", "result": 2.6, "unit": "nM"}, {"measurement": "IC50", "setting": "KHK-C [2]; [4]", "result": 4.4, "unit": "nM"}, {"measurement": "IC50", "setting": "KHK-C [2]; [6]", "result": 4.4, "unit": "nM"}, {"measurement": "IC50", "setting": "KHK-C [3]; [7]", "result": 1.5, "unit": "nM"}]}
